Laboratory results taken from US9056111B1, “Selective efflux inhibitors and related pharmaceutical compositions and methods of treatment” (STC.UNM, priority 2011, dated 2015).
Where “and” joins values, the source holds several entries; their conditions need not be identical. Equal values may be shown once. Read-outs that look alike come from different tables or passages of the source.

Assays:
[1] = biological target: ABCB1 (Homo sapiens, UniProt P08183); test: JC-1 efflux inhibition dose response, flow cytometry, Jurkat-DNR cells; details: for IC50: Jurkat-DNR cells over-expressing ABCB1, averages of two to four replicates
Sequence of ABCB1 (P08183 whole entry): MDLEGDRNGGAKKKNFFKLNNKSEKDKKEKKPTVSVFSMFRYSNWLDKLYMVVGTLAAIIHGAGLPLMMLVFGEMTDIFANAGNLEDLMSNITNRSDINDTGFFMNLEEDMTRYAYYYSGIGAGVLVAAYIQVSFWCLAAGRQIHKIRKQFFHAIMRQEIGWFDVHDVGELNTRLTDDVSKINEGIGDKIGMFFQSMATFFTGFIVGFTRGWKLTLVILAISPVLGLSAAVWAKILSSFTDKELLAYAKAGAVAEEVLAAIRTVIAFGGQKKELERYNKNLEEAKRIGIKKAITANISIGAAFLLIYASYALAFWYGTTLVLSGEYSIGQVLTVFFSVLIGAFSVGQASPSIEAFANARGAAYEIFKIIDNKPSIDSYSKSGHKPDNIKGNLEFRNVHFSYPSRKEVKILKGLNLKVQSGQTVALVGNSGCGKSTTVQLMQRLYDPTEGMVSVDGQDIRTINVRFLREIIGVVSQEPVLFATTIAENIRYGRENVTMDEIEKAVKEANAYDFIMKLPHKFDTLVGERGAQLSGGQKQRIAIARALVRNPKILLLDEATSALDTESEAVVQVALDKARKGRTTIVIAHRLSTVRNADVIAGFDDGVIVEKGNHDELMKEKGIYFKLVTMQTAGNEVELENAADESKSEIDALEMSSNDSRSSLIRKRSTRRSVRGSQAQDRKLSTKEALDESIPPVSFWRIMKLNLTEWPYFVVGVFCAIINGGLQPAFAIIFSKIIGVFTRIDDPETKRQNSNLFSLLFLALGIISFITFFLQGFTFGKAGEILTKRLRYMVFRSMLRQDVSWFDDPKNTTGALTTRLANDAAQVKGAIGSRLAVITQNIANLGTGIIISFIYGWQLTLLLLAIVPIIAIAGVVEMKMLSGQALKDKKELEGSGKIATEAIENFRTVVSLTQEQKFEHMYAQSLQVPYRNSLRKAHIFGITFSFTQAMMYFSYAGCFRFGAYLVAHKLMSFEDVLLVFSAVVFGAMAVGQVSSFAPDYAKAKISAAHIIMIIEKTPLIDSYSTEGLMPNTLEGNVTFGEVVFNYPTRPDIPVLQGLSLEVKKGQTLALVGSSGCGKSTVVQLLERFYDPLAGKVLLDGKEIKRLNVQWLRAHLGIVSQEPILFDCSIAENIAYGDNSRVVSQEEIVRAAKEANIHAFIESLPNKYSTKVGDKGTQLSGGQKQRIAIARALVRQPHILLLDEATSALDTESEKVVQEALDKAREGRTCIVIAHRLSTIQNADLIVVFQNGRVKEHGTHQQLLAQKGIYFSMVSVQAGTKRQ
Description: (§1) The HyperCyt® high throughput flow cytometry platform (IntelliCyt™, Albuquerque, N. Mex.) was used to sequentially sample cells from 384-well microplates (2 μL/sample) for flow cytometer presentation at a rate of 40 samples per minute.^62-63 Flow cytometric analysis was performed on a CyAn™ flow cytometer (Beckman-Coulter, Fullerton, Calif.). The resulting time-gated data files were analyzed with HyperView® software to determine compound activity in each well. Inhibition response curves were fitted by Prism® software (GraphPad Software, Inc., San Diego, Calif.) using nonlinear least-squares regression in a sigmoidal dose response model with variable slope, also known as the four-parameter logistic equation. This type of time-gated flow cytometric data analysis was described in detail for a previous ABC transporter screen from our group.^56
The assay provider's ABCB1 over-expressing Jurkat-DNR cell line is used for confirmatory follow up instead of the CCRF-Adr cells. Each cell line (Jurkat-DNR and Ig-MXP3) is run separately against all compounds (no differential cell staining) in dose response. The assay is conducted in 384-well format in a total volume of 15.1 μL. Cells and reagents are added sequentially as follows: 1) PBS buffer (5 μL/well); 2) test compound (100 nL/well); 3) drug-resistant cells (10 μL/well) pre-stained with the JC-1 substrate at 1 μM. Final in-well concentrations of test compound range from 50 μM to 69 nM over an 18 point dose response and the cell concentration is 1×10^6 cells/mL. Nicardipine (50 μM) is added to each plate as a pan-inhibition positive control. The plate is rotated end-over-end at 4 RPM and 25° C. for 30 minutes and then cell samples are analyzed and flow cytometric data of light scatter and fluorescence emission at 530+/−20 nm (488 nm excitation, FL1) are collected.
(§2) Each cell line (Jurkat-DNR and Ig-MXP3) was run separately against all compounds (no differential cell staining) in dose-response. The protocol differed from the single point screen as describe here. Cells and reagents were added sequentially as follows: 1) PBS buffer (5 μL per well); 2) test compound (100 nL per well); 3) drug-resistant cells (10 μL, per well) pre-exposed to the JC-1 substrate at 1 μM just prior to the well addition. Final in-well concentrations of test compound ranged from 50 μM to 69 nM over an 18 point dose-response and the cell concentration was 1×10^6 cells mL^−1.

[2] = biological target: T1, ABCG2 (Homo sapiens, UniProt Q9UNQ0); test: JC-1 efflux inhibition dose response, flow cytometry, Ig-MXP3 cells; details: for ~Fold G2 Selective (B1/G2): quotient of average ABCB1 IC50 and average ABCG2 IC50, efflux assay
T1 sequence (Q9UNQ0 1-655): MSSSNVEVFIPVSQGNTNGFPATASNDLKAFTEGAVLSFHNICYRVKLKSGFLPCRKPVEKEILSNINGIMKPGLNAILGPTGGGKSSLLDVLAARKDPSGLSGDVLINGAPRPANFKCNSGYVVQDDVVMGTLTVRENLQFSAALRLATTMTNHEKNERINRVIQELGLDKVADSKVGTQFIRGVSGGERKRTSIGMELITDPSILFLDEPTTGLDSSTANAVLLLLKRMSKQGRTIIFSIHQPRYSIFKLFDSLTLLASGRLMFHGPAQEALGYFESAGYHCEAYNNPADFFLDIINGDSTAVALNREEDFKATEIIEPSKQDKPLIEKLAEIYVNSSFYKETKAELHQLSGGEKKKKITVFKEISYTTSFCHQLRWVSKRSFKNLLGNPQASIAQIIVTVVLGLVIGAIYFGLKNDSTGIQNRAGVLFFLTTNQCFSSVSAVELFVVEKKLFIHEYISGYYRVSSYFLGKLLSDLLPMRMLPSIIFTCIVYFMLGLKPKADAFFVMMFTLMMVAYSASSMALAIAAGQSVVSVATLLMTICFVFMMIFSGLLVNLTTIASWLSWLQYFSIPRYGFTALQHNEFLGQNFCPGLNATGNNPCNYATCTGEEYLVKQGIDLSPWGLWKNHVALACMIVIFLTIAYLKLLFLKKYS
Description: as §1
(§3) The assay provider's ABCB1 over-expressing Jurkat-DNR cell line is used for confirmatory follow up instead of the CCRF-Adr cells. Each cell line (Jurkat-DNR and Ig-MXP3) is run separately against all compounds (no differential cell staining) in dose response. The assay is conducted in 384-well format in a total volume of 15.1 μL. Cells and reagents are added sequentially as follows: 1) PBS buffer (5 μL/well); 2) test compound (100 nL/well); 3) drug-resistant cells (10 μL/well) pre-stained with the JC-1 substrate at 1 μM. […] Nicardipine (50 μM) is added to each plate as a pan-inhibition positive control.
as §2, with “addition.” for “addition. Final in-well concentrations of test compound ranged from 50 μM to 69 nM over an 18 point dose-response and the cell concentration was 1×10^6 cells mL^−1.”

[3] = system: ABCB1 over-expressing Jurkat-DNR cells; test: Chemoreversal assay: potentiation of daunorubicin (DNR) killing; format: cell-based
[4] = system: ABCG2 over-expressing Ig-MXP3 cells; test: Chemoreversal assay: potentiation of mitoxantrone (MTX) killing; format: cell-based; details: Ig-MXP3 cells
[5] = system: Jurkat-DNR cells; test: Direct cytotoxicity (Toxic Dose 50) without chemotherapeutic
Description: Cells (ABCB1, Jurkat-DNR or ABCG2 Ig-MXP3) are incubated with the test compound (3 order of magnitude concentration range) over a 3-day and 7-day period in the presence of the inhibitor and chemotherapeutic (ABCB1, DNR or ABCG2 MTX), such that a cell concentration of at least 1×10^5 cells/mL is maintained. Cell viability is determined by trypan blue staining and enumeration under light microscopy. […] A chemoreversal index (Chemoreversal 50, CR50) is determined from the viability assessment. Using a similar approach, a direct cytotoxicity index (Toxic Dose 50, TD50) is determined by assessment of cell death of cells grown in media alone.
Cells (ABCB1, Jurkat-DNR or ABCG2 Ig-MXP3) were incubated with the test compound in a 3 order of magnitude concentration range over three and seven day periods in the presence of the inhibitor and chemotherapeutic (ABCB1, 100 nM DNR or ABCG2 30 nM MTX), such that a cell concentration of at least 1×10^5 cells mL^−1 was maintained. Cell viability was determined by trypan blue staining and enumeration under light microscopy. […] A chemoreversal index (Chemoreversal 50, CR50) was determined from the viability assessment. Using a similar approach, a direct cytotoxicity index (Toxic Dose 50, TD50) was determined by assessment of cell death of cells grown in media alone.

[6] = system: Ig-MXP3 cells; test: as above; format: cell-based
[7] = biological target: T2, ABCB1 / ABCG2 (Homo sapiens, UniProt Q9UNQ0); test: JC-1 efflux inhibition dose response, flow cytometry, Ig-MXP3 cells; details: human, probe JC-1 (1 µM), ~Fold G2 Selective (B1/G2), quotient of average ABCB1 IC50 and average ABCG2 IC50, efflux assay
T2 sequence (Q9UNQ0 1-655): T1 sequence (Q9UNQ0 1-655)
Description: as §1, §3
as §2, with “addition.” for “addition. Final in-well concentrations of test compound ranged from 50 μM to 69 nM over an 18 point dose-response and the cell concentration was 1×10^6 cells mL^−1.”

[8] = read-out: IC50 ABCB1 (efflux inhibition of JC-1 substrate)
[9] = read-out: IC50 ABCG2 (efflux inhibition of JC-1 substrate), Ig-MXP3 cells over-expressing ABCG2, averages of two to four replicates
[10] = IC50 ABCB1 (efflux inhibition of JC-1 substrate)
[11] = constant 100 nM DNR, varied inhibitor dose, read-out: CR50 ABCB1
[12] = constant 30 nM MTX, varied inhibitor dose, read-out: CR50 ABCG2
[13] = Jurkat-DNR cells, inhibitor without chemotherapeutic
[14] = Ig-MXP3 cells, inhibitor without chemotherapeutic

Compound | IC50 [1, 8] [nM] | IC50 [1, 10] [nM] | IC50 [2] [nM] | EC50 [3, 11] [nM] | EC50 [4, 12] [nM] | TD50 ABCB1 [5, 13] [µM] | TD50 ABCG2 [6, 14] [µM] | selectivity ratio at 30 min [7] | also measured
COc1cc2c(cc1OC)CN(CCc1ccc(NC(=O)c3cccc(/C=c4\[nH]c(=O)/c(=C/c5ccccc5)n(C)c4=O)c3)cc1)CC2 [Compound 2, reference compound] | 610 ± 430 | – | – | – | – | – | – | – | IC50 ([1]; read-out: IC50 ABCB1 (efflux inhibition of JC-1 substrate), listed as XR9051): 600 nM; IC50 [2, 9]: 2270 ± 2050 nM; IC50 ([2]; read-out: IC50 ABCG2 (efflux inhibition of JC-1 substrate), Ig-MXP3 cells over-expressing ABCG2, averages of two to four replicates, listed as XR9051): 2300 nM; EC50 ([3]; values in nM, read-out: chemoreversal (CR50) ABCB1): 10 nM; EC50 ([4]; values in nM, listed as XR9051, read-out: chemoreversal (CR50) ABCG2): 700 nM; EC50 ([4]; values in nM, read-out: chemoreversal (CR50) ABCG2): 650 nM; TD50 ABCB1 [5]: 1.97 µM; TD50 ABCG2 [6]: 21.40 µM
CN(C)C(=O)CCSC(SCCC(=O)O)c1cccc(/C=C/c2ccc3ccc(Cl)cc3n2)c1 (stereo not drawn) [Compound 5, reference compound] | > 50000 | > 50000 | > 50000 | 20400 | 57400 | 20.40 | 57.40 | – | efflux inhibition activity ABCB1 ([1]; JC-1 efflux, Jurkat-DNR): didn't observe any inhibition; efflux inhibition activity ABCG2 ([2]; JC-1 efflux, Ig-MXP3): didn't observe any inhibition
O=C(NCCCN1CCOCC1)c1cnn2c(-c3ccccc3)cc(-c3ccccc3)nc12 [Compound 6, reference compound] | – | – | – | 220 | 3610 | – | – | – | IC50 ([1]; read-out: IC50 ABCB1 (efflux inhibition of JC-1 substrate), listed as reversan): 4400 nM and 4410 nM; IC50 ([2]; read-out: IC50 ABCG2 (efflux inhibition of JC-1 substrate), Ig-MXP3 cells over-expressing ABCG2, averages of two to four replicates, listed as reversan): 800 nM and 840 nM; EC50 ([3]; constant 100 nM DNR, varied inhibitor dose, listed as reversan, read-out: CR50 ABCB1): 2200 nM; EC50 ([4]; constant 30 nM MTX, varied inhibitor dose, listed as reversan, read-out: CR50 ABCG2): 3600 nM; TD50 ABCB1 [5]: 7.04 µM; TD50 ABCG2 [6]: >100 µM
O=C(c1ccco1)N1CCN(c2cc(-c3ccccc3)nc3cc(-c4cccc(Cl)c4)nn23)CC1 [Compound 8] | 6180 | – | – | 250 | 140 | – | – | – | ~Fold G2 Selective (B1/G2) [2]: 6.4 fold; IC50 [2, 9]: 960 nM; EC50 ([3]; constant 100 nM DNR, varied inhibitor dose, listed as SID 85240370, read-out: CR50 ABCB1): 700 nM
Cc1nc2cc(-c3cccc(Cl)c3)nn2c(N2CCN(C(=O)c3ccco3)CC2)c1C [Compound 9] | – | 8400 ± 700 | 2650 ± 1070 | – | 170 | >100 | 47.40 | 3.2 | –
COc1cccc(C(=O)N2CCN(c3cc(-c4ccccc4)nc4cc(-c5cccc(Cl)c5)nn34)CC2)c1 [Compound 15] | – | 2640 ± 640 | 4450 ± 4680 | 350 | 210 | >100 | >100 | 0.6 | –
O=C(c1cccnc1)N1CCN(c2cc(-c3ccccc3)nc3cc(-c4cccc(Cl)c4)nn23)CC1 [Compound 20] | – | 570 ± 80 | 230 ± 150 | 170 | 130 | 4.72 | 10.30 | 2.5 | –
O=C(c1ccncc1)N1CCN(c2cc(-c3ccccc3)nc3cc(-c4cccc(Cl)c4)nn23)CC1 [Compound 21] | – | 1160 ± 300 | 1030 ± 230 | 250 | 150 | 10.90 | 28.30 | 1.1 | –
O=C(Cc1ccccc1)N1CCN(c2cc(-c3ccccc3)nc3cc(-c4cccc(Cl)c4)nn23)CC1 [Compound 24] | – | 4680 ± 2690 | 5760 ± 3400 | 510 | 600 | 17.80 | >100 | 0.8 | –
O=C(c1ccoc1)N1CCN(c2cc(-c3cccnc3)nc3cc(-c4cccc(Cl)c4)nn23)CC1 [Compound 30] | – | 770 ± 280 | 270 ± 120 | 200 | 20 | 5.33 | 5.77 | 2.9 | –
O=C(c1ccoc1)N1CCN(c2cc(-c3ccncc3)nc3cc(-c4cccc(Cl)c4)nn23)CC1 [Compound 31] | – | 3680 ± 350 | 1460 ± 350 | 600 | 890 | 13.50 | 57.80 | 2.5 | –
COc1cccc(-c2cc3nc(-c4ccco4)cc(N4CCN(C(=O)c5ccoc5)CC4)n3n2)c1 [Compound 56] | 7400 | – | – | 470 | 1000 | – | – | – | ~Fold G2 Selective (B1/G2) [2]: 3.3 fold; IC50 [2, 9]: 2260 nM; TD50 ABCB1 [5]: 5.52 µM; TD50 ABCG2 [6]: >100 µM
